In paper PMC2933614, “Quantitative in vitro and in vivo pharmacological profile of CE-178253, a potent and selective cannabinoid type 1 (CB1) Receptor Antagonist” (BMC Pharmacology, 2010):

Columns and labels:
human CB1 in CHO cells [1] = target: T1, human CB1 in CHO cells (Homo sapiens, UniProt P21554); test: GTPγ[35S] inverse agonist assay; assay type: biochemical
T1 construct: expressed in transfected cells
Method: (§1) GTPγ[^35S] binding assays were performed as described. GTPγ[^35S] binding assays were performed in a 96-well FlashPlate™ format in duplicate using 100 pM GTPγ[^35S] and 10 μg membrane per well in assay buffer composed of 50 mM Tris HCl (pH 7.4); 3 mM MgCl2 (pH 7.4); 10 mM MgCl2, 20 mM EGTA, 100 mM NaCl, 30 μM GDP, 0.1% BSA and the following protease inhibitors: 100 μg/ml bacitracin, 100 μg/ml benzamidine, 5 μg/ml aprotinin, and 5 μg/ml leupeptin. […] Assays were performed at 30°C for 1 hr. The FlashPlates™ were then centrifuged at 2000×g for 10 min. Stimulation of GTPγ[^35S] binding was then quantified using a Wallac Microbeta® [16].

[2] = Fast-induced re-feeding food intake; assay type: in vivo, rat; conditions: for Food Intake % decrease (mean ± SEM): 2 hr after return of food
From the text: All animal studies were approved by the Institutional Animal Care and Use Committee. Male Sprague Dawley rats on normal chow (8 weeks old, 250-300 g on arrival, 300-350 g on test day) were obtained from Charles River. After arrival, animals were individually housed and placed on powdered rat chow. Rats were maintained on a 12-hr light/dark cycle and received food and water ad libitum. In all studies CE-178253 and veh (0.5% methyl cellulose) administration to rats and mice was by oral gavage.
For the fast-induced re-feeding assay, food was removed from the cages the afternoon preceding the test day and the rats were fasted overnight. After the overnight fast, rats were administered veh. or CE-178253. […]
Administration of CE-178253 to male S-D rats inhibited overnight fast-induced refeeding. S-D rats were fasted overnight and veh. (0.5% methylcellulose; MC) or CE-178253 was administered orally. Food was provided to the rats 30 min after dosing. Food intake was measured 30 min and 2 hr after return of food. Dose- and unbound plasma concentration-dependent decreases in cumulative FI versus veh. were observed (Figure 4A, B, Table 3) at both time points after return of food. However, the efficacy (as a percent) was greater in the 0.5-2 hr interval than in the first 0.5 interval. In contrast, FI efficacy in the dark-phase feeding was consistent throughout the first four hr (Figure 3B).

[3] = Plasma to brain concentration ratios (brain impairment); assay type: in vivo; conditions: Sprague-Dawley, rat, brain and plasma (unbound and total), oral; mean ± SD over 0.3, 1, 3, 10 mg/kg p.o., n = 3 per dose; read-out: Ratios of unbound plasma and total plasma to unbound brain and total brain concentrations
[4] = target: T2, rat brain membranes (predominantly CB1) (Rattus norvegicus, UniProt P20272); test: Competition radioligand binding, rat brain membranes
T2 construct: In rat membranes prepared from whole brain; from tissue; host or cells: rat whole brain membranes
T2 sequence (P20272 whole entry): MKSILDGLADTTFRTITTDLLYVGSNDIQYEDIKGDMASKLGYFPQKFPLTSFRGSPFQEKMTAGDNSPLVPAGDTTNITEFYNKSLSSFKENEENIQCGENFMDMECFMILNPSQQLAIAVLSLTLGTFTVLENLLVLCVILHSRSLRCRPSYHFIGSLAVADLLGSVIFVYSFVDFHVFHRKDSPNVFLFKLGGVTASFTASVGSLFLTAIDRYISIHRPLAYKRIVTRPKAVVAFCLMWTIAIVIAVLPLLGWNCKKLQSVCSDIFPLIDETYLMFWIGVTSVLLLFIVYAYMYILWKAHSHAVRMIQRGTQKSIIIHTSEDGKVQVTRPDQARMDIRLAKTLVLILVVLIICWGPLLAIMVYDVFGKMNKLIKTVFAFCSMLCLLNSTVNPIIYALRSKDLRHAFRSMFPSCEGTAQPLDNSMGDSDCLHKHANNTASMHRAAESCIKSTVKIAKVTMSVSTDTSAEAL
Method: HEK293 (CB1) or CHO (CB1 and CB2) cells (ATCC) were stably transfected with the human CB1 or CB2 receptors. Rat brain, and recombinant CB1 and CB2 and membranes were prepared as described. A Pierce™ BCA kit was used to determine protein concentrations.
10 μg of membranes per well from human CB1 and CB 2 receptor transfected cells and rat brain was used in the assay. The plates were covered and placed in an incubator at 30°C for 60 min. At the end of the incubation period 125 μl of stop buffer (10% BSA plus TME) was added to the reaction plate. The plates were then harvested onto GF/C filter plates (Perkin Elmer Life Sciences) presoaked in BSA (5 mg/ml) plus TME. Each filter was washed twice with TME and dried overnight. In the morning the filters were counted on a Wallac Trilux™ counter.
(§2) Saturation and competition radioligand binding assays were used to characterize membranes prepared from human recombinant CB1 and CB2 and rat brain membranes.

human CB1 in CHO cells [5] = target: T1, human CB1 in CHO cells; test: GTPγ[35S] functional assay, antagonism of CP-55940 stimulation, Schild analysis; assay type: biochemical
Method: as §1, §2

Rat oral PK studies = assay type: in vivo
brain CB1 receptor = target: T3, brain CB1 receptor (Rattus norvegicus, UniProt P20272); test: Ex vivo brain receptor occupancy; assay type: in vivo
T3 construct: Brain homogenates were prepared by adding TME buffer to pre-weighed tissue; from tissue; host or cells: brain homogenate of Sprague Dawley rats dosed p.o
T3 sequence (P20272 whole entry): as above
Method: An ex vivo brain receptor occupancy assay was used to calculate the in vivo receptor occupancy of CE-178253 at selected doses. […] Brains were removed from the rats 2 hr after return of food. […] The homogenate was diluted to a concentration of 2 mg/mL using TME buffer. […] The plates were then covered and incubated for 90 min at room temperature on a plate shaker. Reactions were stopped by the addition of 100 μL ice cold 7.5% BSA in TME. The plates were aspirated then harvested onto GF/C filter plates (Perkin Elmer Life Sciences; Boston, MA) using ice-cold TME buffer. The filter plates had been pre-soaked in 50 μL 0.5% BSA in TME for 60 min. Filters were dried at room temperature for 30 min, after which 25 μL of Microscint™ (Perkin Elmer Life Sciences; Boston, MA) was added to each and the plates analyzed on a Microbeta counter. Care was taken in our assay to minimize drug-tissue dissociation by comparing binding in a time course and under various conditions. […] Experiments were run in triplicate with at least an n = 3 for each treatment group.

T1 sequence (P21554 whole entry): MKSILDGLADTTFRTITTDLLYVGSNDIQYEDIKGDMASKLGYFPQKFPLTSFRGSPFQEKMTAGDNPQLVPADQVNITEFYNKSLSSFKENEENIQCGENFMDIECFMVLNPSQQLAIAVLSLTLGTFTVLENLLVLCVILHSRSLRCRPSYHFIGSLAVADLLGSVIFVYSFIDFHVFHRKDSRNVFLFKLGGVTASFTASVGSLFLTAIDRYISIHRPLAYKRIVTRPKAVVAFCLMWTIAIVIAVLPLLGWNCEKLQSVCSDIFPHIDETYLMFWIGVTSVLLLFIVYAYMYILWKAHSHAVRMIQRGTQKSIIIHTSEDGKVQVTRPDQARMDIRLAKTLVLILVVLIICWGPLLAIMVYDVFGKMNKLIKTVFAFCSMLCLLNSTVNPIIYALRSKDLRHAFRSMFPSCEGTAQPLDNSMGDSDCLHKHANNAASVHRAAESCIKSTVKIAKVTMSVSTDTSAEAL

For CCNC1(C(N)=O)CN(c2nc(C)nc3c(-c4ccc(Cl)cc4)c(-c4ccccc4Cl)nn23)C1 [CE-178253], the “Inverse agonist potency weaker than binding potency” value (human CB1 in CHO cells [1]) was 6 fold, the “Inverse agonist potency weaker than functional potency” value (human CB1 in CHO cells [1]) was 29 fold and the IC50 (human CB1 in CHO cells [1]; decrease in basal GTPγ[35S] binding) was 2 ± 0.56 nM. For the same molecule, the Emax (human CB1 in CHO cells [1]; percent decrease in basal GTPγ[35S] binding, read-out: Intrinsic Activity) was 21%, the “Food Intake % decrease (mean ± SEM)” value ([2]; 0.3 mg/kg p.o.) was 6 ± 3% and the “Food Intake % decrease (mean ± SEM)” value ([2]; 1 mg/kg p.o.) was 25 ± 11%. The “Food Intake % decrease (mean ± SEM)” value ([2]; 3 mg/kg p.o.) was 62 ± 5.2 %, the “Food Intake % decrease (mean ± SEM)” value ([2]; 10 mg/kg p.o.) was 75 ± 6.2 % and the EC50 ([2]; Rattus norvegicus, […], read-out: EC50, reduction of food intake) was 0.95 nM. The “Reduction in FI” value ([2]; interval between dosing and return of food extended to 2 hr, at 50% receptor occupancy, p < 0.05) was 27%, the “Maximal FI reduction” value ([2]; two hr) was 70% and the Plasma-to-brain concentration ratio at […] [3] was 2.9 ± 0.25. The Ki [4] was 0.43 ± 0.13 nM, the Kb (human CB1 in CHO cells [5]; GTPγ[35S] assay) was 0.63 nM and the Slope (human CB1 in CHO cells [5]; GTPγ[35S] functional assay, Schild slope) was 0.83. The Ki (human CB1 in CHO cells [5]; inhibition of CP-55940-stimulated GTPγ[35S] binding, read-out: Antagonist Ki, GTPγ[35S] functional assay) was 0.07 ± 0.01 nM, the “Exposure in chow-fed versus DIO rats” value (Rat oral PK studies; PK studies) was “no differences in exposure” and the Tmax (Rat oral PK studies; Sprague Dawley, rat, in vivo, oral, data not shown) was 1 h. The “Receptor occupancy required for maximum efficacy” value (brain CB1 receptor; calculated, energy intake and expenditure models) was 50-75%, the receptor occupancy at 0.3 mg/kg (brain CB1 receptor; rat, po, 0.3 mg/kg p.o., brains removed 2 hr after return of food, read-out: % Receptor Occupancy (mean ± S-D)) was 27 ± 12% and the receptor occupancy at 1 mg/kg (brain CB1 receptor; rat, po, 1 mg/kg p.o., brains removed 2 hr after return of food, read-out: % Receptor Occupancy (mean ± S-D)) was 64 ± 2%. For the same molecule, the receptor occupancy at 3 mg/kg (brain CB1 receptor; rat, po, 3 mg/kg p.o., brains removed 2 hr after return of food, read-out: % Receptor Occupancy (mean ± S-D)) was 78 ± 6% and the receptor occupancy at 10 mg/kg (brain CB1 receptor; rat, po, 10 mg/kg p.o., brains removed 2 hr after return of food, read-out: % Receptor Occupancy (mean ± S-D)) was 82 ± 2%.
